In test [1] the test system is neuropathic pain induced by spinal nerve ligation among rats. The test can be described thus: Y-Maze test: spatial memory, spinal nerve ligation model. The class given is in vivo, rat. Here is the method: (§1) The effects of the prolonged and preventive administration of memantine were first of all studied among rats. The model used was that of the ligation of the spinal nerve L5 (herein after called SNL for spinal nerve ligation) among rats. The emergence of neuropathic pain is assessed according to the following criteria: • the behavior of the rat following the spinal nerve ligation (SNL), • cognition, and • molecular events, including the expression of phosphorylated tyrosine 1472 of the NR2B sub-unit of the NMDA receptor at the spinal level.
(§2) The study was based on the comparison of the two main groups of animals. The first group was a control group. The rats of the control group, designated as “Sham” in the graphs, underwent no operation. They are used to assess the role of the injected substances on the individual, without there being any emergence of neuropathic pain.
Two sub-groups were set up in this group: • one sub-group treated with the vehicle which is a saline solution of NaCl 0.9% by mass, in a dose of 1 mL/kg/rat/day, by intraperitoneal injection; and • one sub-group treated with memantine in a dose of 20 mg/kg/rat/day, by intraperitoneal injection. […]
The rat is placed in the middle of a chamber with three arms, each 40 cm long and 4 cm wide. The rat moves around freely in the different arms for five minutes and the number of entries into each of the arms is counted up. […]

The test system is the same in test [2]. The test can be described thus: Paw pressure test (Randall & Selitto): mechanical hyperalgesia, spinal nerve ligation model. It counts as in vivo, rat. Here is the method: as §1, §2
Two sub-groups were set up in this group: • one sub-group treated with the vehicle which is a saline solution of NaCl 0.9% by mass, in a dose of 1 mL/kg/rat/day, by intraperitoneal injection; and • one sub-group treated with memantine in a dose of 20 mg/kg/rat/day, by intraperitoneal injection.
The second group of animals comprises rats having to undergo to spinal nerve ligation and therefore likely to develop neuropathic pain. This group is referred to in the graphs by the term SNL. As in the control group, this group is divided into two sub-groups: • one sub-group treated with the vehicle, which is a saline solution of NaCl 0.9% by mass, in a dose of 1 mL/kg/rat/day, by intraperitoneal injection; and • one sub-group treated by memantine in a dose of 20 mg/kg/rat/day, by intraperitoneal injection. […]
7. Seven to 14 days after the surgery, the neuropathic, hyperalgesic or allodynic rats are selected according to their response to nociceptive and non-nociceptive stimulation assessed through appropriate tests (see paragraph 6.1.2). […]

In another test the test system is neuropathic pain in rats. To be noted: sciatic nerve ligature or formalin injection, administered during or after the operation (Eisenberg 1995; Carlton 1995), cited from earlier work.
Test [3] relates to neuropathic pain in patients. To be noted: cited from earlier work.

Where two headings read alike, the source gives them in different places.

In the case of `CC12CC3CC(C)(C1)CC(N)(C3)C2` [memantine, 1-amino-3,5-dimethyl-adamantane], the “capacity of exploration (time passed in exploring the arms)” value was “this capacity is restored” in test [1] (SNL rats, memantine for the 4 days preceding operation and days following); “does not significantly modify the capacity of exploration of the rat” in test [1] (rats without ligation, injection for one week, compared with normal rats). In addition, the “vocalization threshold (mechanical hyperalgesia)” value in test [2] (SNL rats, 20 mg/kg/rat/day i.p., four days before and three days after the operation) is “vocalization threshold very close to that of non-operated rats”; in test [2] (SNL rats, 20 mg/kg/rat/day i.p., post-operative injection only (three days after operation)) it was “not enough to restore a normal vocalization threshold”; in test [2] (non-operated (Sham) rats, 20 mg/kg/rat/day intraperitoneal, versus vehicle), “no influence whatsoever on the behavior of non-operated rats”. In addition, the “development of neuropathic pain in rats” value was “limits the appearance of symptoms of neuropathic pain but only dose-dependently and only for a determined period of time” in the test with neuropathic pain in rats; “positive effect in the development of neuropathic pain in rats” in the test with neuropathic pain in rats (listed as Memantine). In addition, the “relief to patients with amputated limb or nerve lesions following surgery” value in test [3] (Nikolajsen et al., 2000) is given as “inefficacious”. For the same compound, the “effect in patients who had undergone amputation” value in test [3] (administered just after the operation (Buvanendran et al, 2008)) is recorded as “beneficial effect”.

(Values after US20140378551A1, “Composition for the Prophylactic Treatment of Neuropathic Pain” (Universite d'Auvergne, priority 2011, published 2014).)
